The target in the test is T1, FAAH (Rattus norvegicus, UniProt P97612).
T1 construct: the rat brain homogenate was diluted so that its protein concentration could be 60 μg/ml, thereby preparing an enzyme solution; from tissue; host or cells: rat cerebrum (SD-line male rat, 10 weeks) homogenate, 15000 x g pellet
T1 sequence (P97612 1-579): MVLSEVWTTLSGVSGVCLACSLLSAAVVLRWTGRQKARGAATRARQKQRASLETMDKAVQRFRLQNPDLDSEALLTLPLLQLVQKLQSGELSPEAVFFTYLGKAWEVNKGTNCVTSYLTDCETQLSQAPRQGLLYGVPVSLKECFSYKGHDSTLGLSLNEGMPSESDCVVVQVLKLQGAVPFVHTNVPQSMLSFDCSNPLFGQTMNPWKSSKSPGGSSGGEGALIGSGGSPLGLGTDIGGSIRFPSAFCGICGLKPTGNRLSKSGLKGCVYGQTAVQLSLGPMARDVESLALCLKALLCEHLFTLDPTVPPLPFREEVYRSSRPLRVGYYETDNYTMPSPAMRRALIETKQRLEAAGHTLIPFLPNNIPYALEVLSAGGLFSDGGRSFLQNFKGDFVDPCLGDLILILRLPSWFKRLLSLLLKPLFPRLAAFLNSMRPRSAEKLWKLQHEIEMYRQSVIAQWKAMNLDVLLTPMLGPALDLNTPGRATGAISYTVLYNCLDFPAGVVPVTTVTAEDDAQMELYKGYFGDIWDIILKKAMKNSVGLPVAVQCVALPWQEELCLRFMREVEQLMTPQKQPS
The test is described as follows: Screening for an FAAH activity inhibiting substance using a rat brain homogenate (IC50). The class given is biochemical. The following applies: radiolabeled anandamide substrate, 1 hour. How it is done: Screening for an FAAH Activity Inhibiting Substance Using a Rat Brain Homogenate
(1) Preparation of a Rat Brain Homogenate
The head of a 10-week-old SD-line male rat (Japan SLC., Inc.) was cut off, and its cerebrum was taken out and weighed. Five times by volume its weight of an ice-cooled buffer (50 mM Tris-HCl (pH 7.4), 0.32 M sucrose) was added, and this was homogenized with a homogenizer in ice to give a uniform suspension. This was centrifuged (1500×g, 4° C., 15 minutes), and the supernatant was again centrifuged (15000×g, 4° C., 20 minutes) to obtain a precipitate. Further, using an ultrasonic wave generator (UR-20P, TOMY SEIKO CO., LTD.), this was ultrasonicated (power dial 4) for 5 seconds. The protein concentration of the resulting homogenate was measured according to a dye-coupling method (protein assay CBB solution, NACALAI TESQUE, INC.). Using a buffer (50 mM Tris-HCl (pH 8.0), 1 mM EDTA, 0.1 mg/ml BSA, 100 mM NaCl), the rat brain homogenate was diluted so that its protein concentration could be 60 μg/ml, thereby preparing an enzyme solution.
(2) Screening for an FAAH Activity Inhibiting Substance
A substrate solution was prepared, comprising 2 μCi/ml radiolabeled anandamide (Anandamide [ethanolamine 1-^3H] (American Radiolabeled Chemical)), 8 μM anandamide (Funakoshi), 50 mM Tris-HCl (pH 8.0), 1 mM EDTA, 0.1 mg/ml BSA and 100 mM NaCl. Test substance solutions were prepared, dissolved in DMSO to have a concentration from 1 nM to 100 μM. 50 μl of the substrate solution and 1 μl of the test substance solution were added to 50 μl of the enzyme solution, and left for 1 hour. As a control, DMSO was added in place of the test substance solution. To this, added was 200 μl of a 1:1 (ratio by volume) solution of chloroform/methanol, followed by vortexing. This was centrifuged (15000 rpm, 2 minutes), whereby the decomposed product ethanolamine (ethanolamine 1-^3H) was separated in the upper layer (water/methanol layer) and the unreacted radiolabeled anandamide (Anandamide [ethanolamine 1-^3H]) was in the lower layer (chloroform layer). 30 μl of the upper layer was transferred into a 96-well organic solvent-resistant white microplate (PicoPlate-96; Perkin Elmer, Inc.), 150 μl of Microscint-20 (Perkin Elmer, Inc.) was added thereto, and this was measured with a microplate scintillation counter (TopCount™; Beckman Coulter, Inc.). As compared with the control, the substance that gave a decreased value was selected as an FAAH activity-inhibiting substance.
(3) Measurement of the IC50 Value of the FAAH Activity Inhibiting Substance
The compound was dissolved in DMSO to have a varying concentration from 1 nM to 100 μM to prepare test substance solutions. According to the method mentioned above, the compound was analyzed for its influence on FAAH activity. As a control, DMSO was used. A measured value of a case where a buffer (50 mM Tris-HCl (pH 8.0), 1 mM EDTA, 0.1 mg/ml BSA, 100 mM NaCl) was reacted in place of the enzyme solution was subtracted from every measured value. Based on the measured value of the control, 100%, the IC50 value of the test substance was determined. Furthermore, Ex represents the Example No. as denoted below.

SMILES strings stand for the structures. Structures can show the parent of a compound that is named as a salt.

With `O=C(Nc1cccnc1)N1CCN(Cc2ccnc(OCCC3CCCCC3)c2)CC1` [Example 30, 4-{[2-(2-cyclohexylethoxy)pyridin-4-yl]methyl}-N-pyridin-3-ylpiperazine-1-carboxamide trihydrochloride], the midpoint of inhibition, the IC50, lay at 30 nM.

Consider `O=C(Nc1cnccn1)N1CCN(C(=O)c2ccnc(OCCC3CCCCC3)c2)CC1` [Example 38, 4-[2-(2-cyclohexylethoxy)isonicotinoyl]-N-pyrazin-2-ylpiperazine-1-carboxamide], for which half-maximal inhibition (IC50) was put at 5 nM.

For `O=C(Nc1ncccn1)N1CCN(C(=O)c2cccc(OCCC3CCCCC3)c2)CC1` [Example 155], half-maximal inhibition (IC50) required 25 nM.

As to `O=C(Nc1cnccn1)N1CCN(C(=O)c2cccc(OCCC3CCCCC3)c2)CC1` [Example 210], inhibition was half-maximal at 3.3 nM (IC50).

Turning to `CN(CCC1CCCCC1)c1ccc(C(=O)N2CCN(C(=O)Nc3cccnc3)CC2)cc1` [Example 334], the IC50 (as a rule, the point on the concentration scale where inhibition reaches its midpoint) stood at 42 nM.

As for `COCC(=O)NC(=O)N1CCN(Cc2cccc(OCCC3CCCCC3)c2)CC1` [Example 439], inhibition was half-maximal at 25 nM (IC50).

The record behind these values is patent US20110172230A1, “UREA COMPOUND OR SALT THEREOF” (priority 2006, published 2011).
